How the values were obtained:
C. ljungdahlii ERI-2 [1] = assay: Carboxylic acid reduction in batch cultures with constant syngas supply; assay type: cell-based, Clostridium ljungdahlii; settings: 15 mM carboxylic acid; for max. opt. density at 600 nm: triplicate
Procedure: (§1) All chemicals were purchased from Sigma-Aldrich, St. Louis, Mo., unless stated otherwise. Bacterial strain and growth conditions. Most experiments were conducted with C. ljungdahlii ERI-2 (ATTC 55380), which has been used successfully for syngas to ethanol fermentation. Some experiments were repeated with C. ragsdalei P11 (ATTC BAA-622). Bacteria were grown anaerobically at 35° C. in medium designed for efficient syngas fermentation. This medium is mostly based on ATCC medium 1754 but contains higher concentrations of the macronutrient elements. The yeast extract concentration was 0.5 g/L or 0.0 g/L as indicated for each experiment; the concentration of MES (2-(N-morpholino)ethanesulfonic acid) was 150 mM; carboxylic acids (propionic, n-butyric, isobutyric, n-valeric or n-caproic acid) were added to final concentrations of 15 mM before adjustment of the pH to 5.5. The syngas atmosphere was a synthetic blend of 60% [vol/vol]carbon monoxide, 35% hydrogen, and 5% carbon dioxide (Airgas East, Ithaca, N.Y.). Precultures of C. ljungdahlii or C. ragsdalei were grown in 250 ml serum bottles containing 20 ml medium with 0.5 g/L or 0.0 g/L yeast extract (the latter for inoculation of experiments with no yeast extract) and syngas in the headspace at a pressure of 28 psi with finite amounts of syngas. Precultures were maintained in an active state by weekly transfer of 2% into a fresh serum bottle with a headspace of finite syngas.
Experimental setup. The experiments to determine the ability of C. ljungdahlii to reduce propionic acid, n-butyric acid, n-valeric acid, n-caproic acid, or isobutyric acid (2-methyl propionic acid) to the corresponding alcohols were performed in triplicate in 250 ml rubber-stoppered Pyrex glass bottles (Fisher Scientific, Pittsburgh, Pa.), which were used as batch systems in regards to the growth medium, but with constant syngas supply (FIG. 1A). Three stainless steel needles of different length (21 gauge, Becton Dickinson Franklin Lakes, N.J., and ColeParmer, Vernon Hills, Ill.) were punched through each rubber stopper as gas supply, vent, and sample ports. The reactors were filled with 220 mL medium containing 0.5 g/L yeast extract and one of each carboxylic acids at a concentration of 15 mM, autoclaved, and then equipped with fermentation airlocks (www.winemakingsuperstore.com) filled with 5% sulfuric acid to prevent contamination by other microbes or oxygen, and placed in a temperature-controlled recirculating water bath for mechanical agitation using a 15 multi-position IKA magnetic stirrer (Cole-Parmer Vernon Hills, Ill. 60061 USA). Artificial syngas was constantly supplied to up to 12 reactors at a time, at a flow rate of 5 mL/min to each reactor with a gassing station with multiple outlets and low-flow brass needle valves (McMaster-Carr, Aurora, Ohio), sterile Masterflex viton tubing (Cole Parmer, Vernon Hills, Ill.), 0.22-μm sterile filters (Fisher Scientific), and sterile needles through the rubber stopper (size 6.5, VWR, Radnor, Pa.) connected to gas diffusion stones (Fisher Scientific). All reactors were inoculated with 2% exponentially growing pre-cultures. The fermentation was operated for ca. 400 h.
(§2) Analytical procedures. Cell dry weight concentration in the cultures was determined through measurement of the optical density with a Milton Roy Spectronic 1201 spectrophotometer at a wavelength of 600 nm after determining a correlation coefficient of 242 mg dry weight/(L*OD600nm). The carbon content was calculated using the universal proportion of elements in microbial biomass (C5H7O2N). A gas chromatography system (HP 5890, Hewlett Packard, Palo Alto, Calif.), which was equipped with a 7673 autoinjector and flame ionization detector, was used for the quantification of carboxylic acids and alcohols. GC columns were purchased from Sigma-Aldrich, Inc., St. Louis, Mo. The flow rates of hydrogen, air, and helium were 35, 380, and 30 mL/min. […]

C. ragsdalei P11 = assay: as above; assay type: cell-based, Clostridium ragsdalei; settings: 15 mM carboxylic acid; for max. opt. density at 600 nm: triplicate
Procedure: as §1
Experimental setup. The experiments to determine the ability of C. ljungdahlii to reduce propionic acid, n-butyric acid, n-valeric acid, n-caproic acid, or isobutyric acid (2-methyl propionic acid) to the corresponding alcohols were performed in triplicate in 250 ml rubber-stoppered Pyrex glass bottles (Fisher Scientific, Pittsburgh, Pa.), which were used as batch systems in regards to the growth medium, but with constant syngas supply (FIG. 1A). Three stainless steel needles of different length (21 gauge, Becton Dickinson Franklin Lakes, N.J., and ColeParmer, Vernon Hills, Ill.) were punched through each rubber stopper as gas supply, vent, and sample ports. […]
as §2, with “alcohols.” for “alcohols. GC columns were purchased from Sigma-Aldrich, Inc., St. Louis, Mo. The flow rates of hydrogen, air, and helium were 35, 380, and 30 mL/min.”

C. ljungdahlii ERI-2 [2] = assay: Batch syngas fermentation in 1 L bottles with a finite amount of syngas (stoichiometry); assay type: cell-based, Clostridium ljungdahlii; settings: 15 mM n-butyric acid, 25 to 115 h
Procedure: The stoichiometry of substrates and products of syngas fermentation with 0 mM n-butyric acid and 15 mM n-butyric acid was determined in 1 L rubber-stoppered Pyrex glass bottles filled with […] medium without yeast extract and 1051.6 ml syngas headspace at a pressure of 28 psi. […] Here, yeast extract was omitted from the growth medium to minimize the interference of organic compounds (amino acids) in the fermentation. Two needles, each connected to a three-way valve, were used to take gas or liquid samples from the reactor. Gas pressure was measured using gauge pressure transducers (Model PX26, Omega Engineering, Inc., Stamford, Conn.) attached to hypodermic needles inserted through a rubber septum on the three-way valve of the sampling port. […] Cell density (OD600nm), pH, headspace gas pressure, concentrations of carbon monoxide, hydrogen, and carbon dioxide in the headspace, and concentrations of carboxylic acids and solvents in the culture medium were monitored daily. […]
Analytical procedures. Cell dry weight concentration in the cultures was determined through measurement of the optical density with a Milton Roy Spectronic 1201 spectrophotometer at a wavelength of 600 nm after determining a correlation coefficient of 242 mg dry weight/(L*OD600nm). The carbon content was calculated using the universal proportion of elements in microbial biomass (C5H7O2N). […]

| SMILES | growth rate (C. ljungdahlii ERI-2 [1]) [h⁻¹] | max. opt. density at 600 nm (C. ljungdahlii ERI-2 [1]) | growth rate (C. ragsdalei P11) [h⁻¹] | max. opt. density at 600 nm (C. ragsdalei P11) | cell mass DW (C. ljungdahlii ERI-2 [2]) [mg] | maximum OD600 (C. ljungdahlii ERI-2 [2]) |
| --- | --- | --- | --- | --- | --- | --- |
| CCCCCC(=O)O [n-caproic acid] | 0.049 ± 0.003 | 1.47 ± 0.17 | – | – | – | – |
| CCCC(=O)O [n-butyric acid] | 0.094 ± 0.004 | 2.71 ± 0.39 | 0.120 ± 0.004 | 0.98 ± 0.05 | 16.65 ± 2.99 | 1.34 ± 0.21 |
| CCCCC(=O)O [n-valeric acid] | 0.077 ± 0.007 | 2.01 ± 0.04 | – | – | – | – |
| CCC(=O)O [propionic acid] | 0.084 ± 0.012 | 2.69 ± 0.19 | 0.093 ± 0.024 | 0.53 ± 0.14 | – | – |
| CC(C)C(=O)O [isobutyric acid] | 0.077 ± 0.008 | 2.50 ± 0.31 | – | – | – | – |

Reference: US20150218599A1, “METHODS FOR PRODUCTION OF ALCOHOLS FROM CARBOXYLIC ACIDS VIA FERMENTATION” (Cornell University, priority 2012, published 2015)
